Results published in ChEMBL document CHEMBL1201862, “PubChem BioAssay data set” (2004).
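These data come from cells grown in 96-well plates and exposed to compound for 48 hours at five concentrations. The concentration for 50% growth inhibition is given as GI50.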 Active and inactive are the calls of the source. Rule as the data show it: active = GI50 up to about 1.1 µM and inactive = higher.

What was measured:
Assay in all cases: DTP human tumour cell line panel, 48 h
HT-29 = test system: HT-29
UO-31 = test system: UO-31
786-0 = test system: 786-0
EKVX = test system: EKVX
U-251 = test system: U-251
SNB-19 = test system: SNB-19
NCI-H226 = test system: NCI-H226
M14 = test system: M14
RXF 393 = test system: RXF 393
NCI-H23 = test system: NCI-H23
OVCAR-5 = test system: OVCAR-5
OVCAR-4 = test system: OVCAR-4
MOLT-4 = test system: MOLT-4
HL-60 = test system: HL-60
NCI-H522 = test system: NCI-H522
HCC 2998 = test system: HCC 2998
SF-295 = test system: SF-295

For `O=[N+]([O-])c1cccnc1S(=O)(=O)c1ccccc1`, the GI50 (HT-29) was 6.41 µM (inactive), the GI50 (UO-31) was 6.52 µM (inactive) and the GI50 (786-0) was 2.48 µM (inactive). The GI50 (EKVX) was 6.4 µM (inactive), the GI50 (U-251) was 8.95 µM (inactive) and the GI50 (SNB-19) was 19.8 µM (inactive). For the same molecule, the GI50 (NCI-H226) was 15.8 µM (inactive), the GI50 (M14) was 9.4 µM (inactive) and the GI50 (RXF 393) was 1.99 µM (inactive). The GI50 (NCI-H23) was 15.8 µM (inactive), the GI50 (OVCAR-5) was 15.8 µM (inactive) and the GI50 (OVCAR-4) was 6.47 µM (inactive). For the same molecule, the GI50 (MOLT-4) was 2.84 µM (inactive), the GI50 (HL-60) was 2.49 µM (inactive) and the GI50 (NCI-H522) was 1.46 µM (inactive). The GI50 (HCC 2998) was 13.6 µM (inactive) and the GI50 (SF-295) was 18.5 µM (inactive).

With `CC(C)(C)c1ccc2c(c1)C(O)(c1ccccc1)c1cc(C(C)(C)C)ccc1C2(O)C(F)(F)F` (configuration not stated) the GI50 (HT-29) was 1.57 µM (inactive), the GI50 (UO-31) was 2.11 µM (inactive) and the GI50 (786-0) was 1.88 µM (inactive). For the same molecule, the GI50 (EKVX) was 3.03 µM (inactive), the GI50 (U-251) was 1.81 µM (inactive) and the GI50 (SNB-19) was 2.27 µM (inactive). For the same molecule, the GI50 (NCI-H226) was 1.05 µM (active), the GI50 (M14) was 1.92 µM (inactive) and the GI50 (RXF 393) was 1.82 µM (inactive). The GI50 (NCI-H23) was 1.81 µM (inactive), the GI50 (OVCAR-5) was 1.66 µM (inactive) and the GI50 (OVCAR-4) was 1.83 µM (inactive). The GI50 (MOLT-4) was 1.77 µM (inactive), the GI50 (HL-60) was 2.29 µM (inactive) and the GI50 (NCI-H522) was 1.64 µM (inactive). The GI50 (HCC 2998) was 2.1 µM (inactive) and the GI50 (SF-295) was 1.43 µM (inactive).

For `O=[N+]([O-])C=C(c1ccc(Cl)cc1)c1ccc(Cl)cc1`, the GI50 (HT-29) was 18.9 µM (inactive), the GI50 (UO-31) was 14.2 µM (inactive) and the GI50 (786-0) was 16.5 µM (inactive). The GI50 (EKVX) was 17.5 µM (inactive), the GI50 (U-251) was 16.1 µM (inactive) and the GI50 (SNB-19) was 18.5 µM (inactive). The GI50 (NCI-H226) was 16.7 µM (inactive), the GI50 (M14) was 14.8 µM (inactive) and the GI50 (RXF 393) was 18.7 µM (inactive). For the same molecule, the GI50 (NCI-H23) was 9.68 µM (inactive), the GI50 (OVCAR-5) was 14.5 µM (inactive) and the GI50 (OVCAR-4) was 13.5 µM (inactive). The GI50 (MOLT-4) was 17.9 µM (inactive), the GI50 (HL-60) was 17.1 µM (inactive) and the GI50 (NCI-H522) was 14.4 µM (inactive). The GI50 (HCC 2998) was 19 µM (inactive) and the GI50 (SF-295) was 18.5 µM (inactive).

With `N=C(N)NNC(=O)CCn1[nH]c(=O)c(Cl)c(Cl)c1=O` the GI50 (HT-29) was > 100 µM (inactive), the GI50 (UO-31) was > 100 µM (inactive) and the GI50 (786-0) was > 100 µM (inactive). The GI50 (EKVX) was > 100 µM (inactive), the GI50 (U-251) was > 100 µM (inactive) and the GI50 (SNB-19) was > 100 µM (inactive). For the same molecule, the GI50 (NCI-H226) was > 100 µM (inactive), the GI50 (M14) was > 100 µM (inactive) and the GI50 (RXF 393) was > 100 µM (inactive). The GI50 (NCI-H23) was > 100 µM (inactive), the GI50 (OVCAR-5) was > 100 µM (inactive) and the GI50 (OVCAR-4) was > 100 µM (inactive). The GI50 (MOLT-4) was > 100 µM (inactive), the GI50 (HL-60) was > 100 µM (inactive) and the GI50 (NCI-H522) was > 100 µM (inactive). The GI50 (HCC 2998) was > 100 µM (inactive) and the GI50 (SF-295) was > 100 µM (inactive).

`Sc1nnc(-c2ccnc(-c3nnc(S)[nH]3)c2)[nH]1` was tested, and the GI50 (HT-29) was > 100 µM (inactive), the GI50 (UO-31) was > 100 µM (inactive) and the GI50 (786-0) was > 100 µM (inactive). For the same molecule, the GI50 (EKVX) was > 100 µM (inactive), the GI50 (U-251) was > 100 µM (inactive) and the GI50 (SNB-19) was > 100 µM (inactive). The GI50 (NCI-H226) was > 100 µM (inactive), the GI50 (M14) was > 100 µM (inactive) and the GI50 (RXF 393) was > 100 µM (inactive). For the same molecule, the GI50 (NCI-H23) was > 100 µM (inactive), the GI50 (OVCAR-5) was > 100 µM (inactive) and the GI50 (OVCAR-4) was > 100 µM (inactive). The GI50 (MOLT-4) was > 100 µM (inactive), the GI50 (HL-60) was > 100 µM (inactive) and the GI50 (NCI-H522) was > 100 µM (inactive). For the same molecule, the GI50 (HCC 2998) was > 100 µM (inactive) and the GI50 (SF-295) was > 100 µM (inactive).

`CSc1nc(O)c2cn(Cc3ccccc3)nc2n1` was tested, and the GI50 (HT-29) was 98.2 µM (inactive), the GI50 (UO-31) was > 87.3 µM (inactive) and the GI50 (786-0) was > 100 µM (inactive). For the same molecule, the GI50 (EKVX) was > 100 µM (inactive), the GI50 (U-251) was > 100 µM (inactive) and the GI50 (SNB-19) was > 100 µM (inactive). The GI50 (NCI-H226) was > 100 µM (inactive), the GI50 (M14) was > 91.6 µM (inactive) and the GI50 (RXF 393) was > 91 µM (inactive). The GI50 (NCI-H23) was > 100 µM (inactive), the GI50 (OVCAR-5) was > 100 µM (inactive) and the GI50 (OVCAR-4) was > 100 µM (inactive). For the same molecule, the GI50 (MOLT-4) was > 100 µM (inactive), the GI50 (HL-60) was > 100 µM (inactive) and the GI50 (NCI-H522) was > 100 µM (inactive). For the same molecule, the GI50 (HCC 2998) was > 100 µM (inactive) and the GI50 (SF-295) was > 100 µM (inactive).
